Results published in article PMC7504818, “Synthetic Analogues of Aminoadamantane as Influenza Viral Inhibitors—In Vitro, In Silico and QSAR Studies” (Molecules, 2020).
Like-named read-outs stand apart in the source and are kept apart here.

Legend:
[1] = test system: influenza virus A/H3N2, strain Hong Kong 68; test: Antiviral activity against influenza virus A/H3N2, strain Hong Kong 68 (crystal violet uptake assay in MDCK cells); type: cell-based; conditions: for Active: experimental class, active if IC50 < 30 μM
Experimental: The synthesized compounds were tested for antiviral activity against the influenza virus A/H3N2, strain Hong Kong 68.
In order to identify new potential antiviral drugs, small amounts of extracts or compounds have to be examined for cytotoxicity and antiviral activity in primary screening using a rapid, easy, inexpensive and highly standardized test system. The cytotoxic and the antiviral effects were quantified using a crystal violet uptake assay allowing automated handling of large numbers of candidate agents. […] Madin-Darby Kanine Kidney Cells (MDCK) cells were seeded at 2 × 10^4 cells per well in 96-well flat-bottomed microtiter plates (Falcon 3075). The cytotoxicity of the test compounds was determined on 2-day-old confluent MDCK cell monolayers grown in the internal 60 wells (5% CO2, 37 °C). After removal of the growth medium, two-fold dilutions of the compounds in 100 µL test medium were added and incubated at 37 °C in a 5% CO2 atmosphere for 72 h. Cells in six wells without compound treatment served as basic controls. The Dynex Immuno Assay System (DIAS, Guernsey, UK) developed for automated ELISA techniques was applied to wash gently, stain, measure and analyze the viability of the cell monolayers in cytotoxic, as well as antiviral assays. The staining procedure undertaken with crystal violet was based on the principles described by Nain et al. for the determination of the cytotoxic activity of TNF-α [20]. At first, the supernatant was aspirated and the cell monolayers were washed three times with […] physiological sodium chloride solution to remove dead cells. Secondly, the cells were fixed and stained in one step with 50 µL of 0.03% crystal violet (w/v) in 20% methanol for 10 min. […] Then the optical density of individual wells was quantified spectrophotometrically at 540/630 nm and analyzed with the DIAS. Cell viability was evaluated as the percentage of the mean value of optical density, resulting from the six cell controls, which was set 100%. The 50% cytotoxic concentrations (CC50) were calculated from the mean dose–response curves of three assays each with two parallels.
To exclude non-specific antiviral activities of test compounds, their cytotoxic effects have to be determined not only on confluent cell monolayers but also on proliferating cell cultures in the primary antiviral screening. The cytotoxicity and the growth inhibition of compounds were quantified using an automated crystal violet staining procedure and the electronic cell analyzer system CASY 1, respectively, on day 3 after compound application. The 50% cytotoxic and growth inhibition concentrations were calculated from the mean dose–response curve (3.9 through 1000 µg mL^−1; dilution factor 2) of three separate experiments each with two parallels in the indicated cell lines.

MDCK cells = conditions: for HNTC (μM) MDCK Cells: high-nontoxic concentration; for CC50: read-out: CC50 (μM) MDCK Cells, 50% cytotoxic concentration, confluent MDCK monolayers, 72 h
in vitro [2] = conditions: dog
in vitro [3] = type: in vitro ADME; conditions: human, plasma
Experimental: The separation of glycyl-rimantadine (4b) and Ala-rimantadine (4a) (internal standard, IS) was performed on an ultra-high-performance liquid chromatography (UHPLC) system (Bruker Daltonics, Germany), utilizing an RP Kinetex C18 column 100 mm × 2.1 mm, 2.6 μm, with a proguard column 2.1 mm (Phenomenex, USA). The mobile phase was composed of formic acid 0.1% in water (A) and acetonitrile (B). Gradient elution was chosen for the analysis, at a constant flow rate of 0.25 mL min^−1 and the following gradient profile: initial phase (B) concentration of 5% until 0.3 min, then increased to 80% within 1.2 min, kept constant for 1 min at 80% and then reduced to 5% at 2.6 min, until the end of the run at 4 min. The temperature in the autosampler and the column oven was maintained at 15 °C and 40 °C, respectively. The sample injection volume was set to 5 μL.
The EVOQ Elite ER (Bruker Daltonics, Germany) triple quadrupole mass spectrometer was operated in positive ionization electrospray mode (ESI) in multiple reaction monitoring (MRM) for the detection of glycyl-rimantadine (4b) and IS. The optimal MRM transitions for monitoring the analytes were determined and set as follows: m/z 237.1 → 163.2, 237.1 → 75.5 and 237.1 → 81.4 for glycyl-rimantadine and 251.1 → 163.2, 251.1 → 89.4 and 251.1 → 180.2 for the IS. The optimum ESI parameters were determined and set as follows: spray voltage at 4500 V; heated probe gas flow at 50 units; heated probe temperature at 150 °C; cone gas flow at 20 units; cone temperature at 300 °C and nebulizer gas flow at 50 units. The control of the LC and the MS, as well as the data acquisition, was performed using the MSWS software, version 8.2.1 (Bruker Datonics, Germany). […]
The in vitro plasma stability of glycyl-rimantadine (4b) was conducted by LC–MS/MS. […] The glycyl-rimantadine (4b) concentration was calculated via the standard calibration curve that was designed by plotting the area of the conjugate versus the IS area against the nominal concentration of the calibration standards. […]

[4] = parameters: method as in doi:10.1177/095632029200300305, PMID 9706043, PMID 19116869; conditions: orally introduced; cited from earlier work
[5] = influenza A/H3N2 Hong Kong/68, read-out: IC50 (μM) Against A/Hong Kong/68
[6] = Influenza A virus, H3N2, MDCK, read-out: IC50 (μM) Against A/Hong Kong/68
[7] = MDCK, Table 4, against A/Hong Kong/68, QSAR numbering, read-out: IC50
[8] = Table 4, against A/Hong Kong/68, QSAR numbering, read-out: IC50

Compound: CC(NC(=O)[C@H](C)NC(=N)N)C12CC3CC(CC(C3)C1)C2 (stereo partly drawn) [Compound 6a, Gua-Ala-Rim]
- IC50 [1, 5]: 41.9 µM
- HNTC (μM) MDCK Cells (MDCK cells): >100 µM
- CC50 (MDCK cells): > 100 µM

Compound: CC(C)CC(N)C(=O)NC(C)C12CC3CC(CC(C3)C1)C2 (centres unmarked) [Compound 4d, Leu-Rim]
- IC50 [1, 6]: 0.75 µM
- HNTC (μM) MDCK Cells (MDCK cells): 11.66 µM
- CC50 (in vitro [2]): > 100 µM

Compound: CC(N)C(=O)NC(C)C12CC3CC(CC(C3)C1)C2 (centres unmarked) [Compound 4a, Ala-Rimantadine]
- IC50 [1, 6]: 1.53 µM
- HNTC (μM) MDCK Cells (MDCK cells): 14.65 µM
- CC50 (in vitro [2]): > 100 µM

Compound: CC(NC(=O)CCNC(=N)N)C12CC3CC(CC(C3)C1)C2 (stereo not drawn) [Compound 6i, Gua-β-Ala-Rim]
- HNTC (μM) MDCK Cells (MDCK cells): >100 µM
- CC50 (MDCK cells): > 100 µM

Compound: CC(NC(=O)C(N)Cc1ccc(F)cc1)C12CC3CC(CC(C3)C1)C2 (centres unmarked) [Compound 4g, (4-F)-Phe-Rim]
- HNTC (μM) MDCK Cells (MDCK cells): 4.37 µM
- CC50 (in vitro [2]): 15.5 µM

Compound: CC(NC(=O)CN)C12CC3CC(CC(C3)C1)C2 (centres unmarked) [Compound 4b, glycyl-rimantadine]
- IC50 [1, 6]: 0.11 µM
- remaining at 6 h, 1.58 µg/mL (in vitro [3]): 97.5%
- remaining at 12 h, 1.58 µg/mL (in vitro [3]): ~91%
- remaining at 24 h, 1.58 µg/mL (in vitro [3]): 83.7%
- HNTC (μM) MDCK Cells (MDCK cells): 13.89 µM
- CC50 (in vitro [2]): > 100 µM

Compound: NC(Cc1ccccc1)C(=O)NC12CC3CC(CC(C3)C1)C2 (centres unmarked) [Compound 5e, phenylalanyl-amantadine]
- IC50 [1, 6]: 0.75 µM
- IC50 [1, 7]: 0.75 µM
- Active [1]: Yes (Active compound only if IC50 < 30 μM)
- HNTC (μM) MDCK Cells (MDCK cells): 15.1 µM
- CC50 (in vitro [2]): 89.4 µM

Compound: CC(NC(=O)[C@H](N)Cc1ccc(F)cc1)C12CC3CC(CC(C3)C1)C2 (stereo partly drawn) [Compound 4f, (4-F)-D-Phe-Rim]
- HNTC (μM) MDCK Cells (MDCK cells): 6.23 µM
- CC50 (in vitro [2]): 19.9 µM

Compound: C[C@H](NC(=N)N)C(=O)NC12CC3CC(CC(C3)C1)C2 [Compound 7a, Gua-Ala-Am]
- IC50 [1, 8]: 18.4 µM
- Active [1]: Yes (Active compound only if IC50 < 30 μM)
- IC50 [1, 5]: 18.4 µM
- HNTC (μM) MDCK Cells (MDCK cells): >100 µM
- CC50 (MDCK cells): > 100 µM

Compound: NC(Cc1ccc(F)cc1)C(=O)NC12CC3CC(CC(C3)C1)C2 (centres unmarked) [Compound 5g, (4-F)-phenylalanyl-amantadine]
- IC50 [1, 6]: 0.81 µM
- IC50 [1, 7]: 0.81 µM
- Active [1]: Yes (Active compound only if IC50 < 30 μM)
- HNTC (μM) MDCK Cells (MDCK cells): 15.35 µM
- CC50 (in vitro [2]): 83.6 µM

Compound: CCC(C)C(N)C(=O)NC(C)C12CC3CC(CC(C3)C1)C2 (centres unmarked) [Compound 4c, Ile-Rim]
- HNTC (μM) MDCK Cells (MDCK cells): 5.33 µM
- CC50 (in vitro [2]): 58.4 µM

Compound: NC12CC3CC(CC(C3)C1)C2 [Amantadine, reference compound]
- IC50 [1, 6]: 0.39 µM
- IC50 [1, 7]: 0.39 µM
- Active [1]: Yes (Active compound only if IC50 < 30 μM)
- CC50 (in vitro [2]): > 100 µM

Compound: CC(NC(=O)CCN)C12CC3CC(CC(C3)C1)C2 (stereo not drawn) [Compound 4i, β-Ala-Rimantadine]
- IC50 [1, 6]: 15.7 µM
- HNTC (μM) MDCK Cells (MDCK cells): 20.78 µM
- CC50 (in vitro [2]): > 100 µM

Compound: CC(NC(=O)[C@H](Cc1ccc(O)cc1)NC(=N)N)C12CC3CC(CC(C3)C1)C2 (stereo partly drawn) [Compound 6j, Gua-Tyr-Rim]
- IC50 [1, 5]: 8.19 µM
- HNTC (μM) MDCK Cells (MDCK cells): 36.69 µM
- CC50 (MDCK cells): > 100 µM

Compound: CC(C)[C@H](N)C(=O)OCCOCn1cnc2c(=O)[nH]c(N)nc21 [Valacyclovir]
- bioavailability, times higher than acyclovir [4]: 3–4 times

Compound: CC(C)C(N)C(=O)NC(C)C12CC3CC(CC(C3)C1)C2 (centres unmarked) [Compound 4h, Val-Rim]
- HNTC (μM) MDCK Cells (MDCK cells): 10.2 µM
- CC50 (in vitro [2]): 70.3 µM

Compound: CCOC(=O)C1=C[C@@H](OC(CC)CC)[C@H](NC(C)=O)[C@@H](N)C1 [Oseltamivir, reference compound]
- IC50 [1, 6]: 0.002 µM
- HNTC (μM) MDCK Cells (MDCK cells): >100 µM
- CC50 (in vitro [2]): > 100 µM

Compound: CC(C)[C@H](NC(=N)N)C(=O)NC12CC3CC(CC(C3)C1)C2 [Compound 7h, Gua-Val-Am]
- IC50 [1, 8]: 17.1 µM
- Active [1]: Yes (Active compound only if IC50 < 30 μM)
- IC50 [1, 5]: 17.1 µM
- HNTC (μM) MDCK Cells (MDCK cells): >100 µM
- CC50 (MDCK cells): > 100 µM

Compound: CC(N)C(=O)NC12CC3CC(CC(C3)C1)C2 (centres unmarked) [Compound 5a, Ala-Amantadine]
- IC50 [1, 6]: 1.41 µM
- IC50 [1, 7]: 1.41 µM
- Active [1]: Yes (Active compound only if IC50 < 30 μM)
- HNTC (μM) MDCK Cells (MDCK cells): >100 µM
- CC50 (in vitro [2]): > 100 µM

Compound: CC(C)C(N)C(=O)NC12CC3CC(CC(C3)C1)C2 (centres unmarked) [Compound 5h, Val-Amantadine]
- IC50 [1, 6]: 1.32 µM
- IC50 [1, 7]: 1.32 µM
- Active [1]: Yes (Active compound only if IC50 < 30 μM)
- HNTC (μM) MDCK Cells (MDCK cells): >100 µM
- CC50 (in vitro [2]): > 100 µM

Compound: CC(NC(=O)C(N)Cc1ccc(O)cc1)C12CC3CC(CC(C3)C1)C2 (centres unmarked) [Compound 4j, Tyr-Rimantadine]
- IC50 [1, 6]: 0.52 µM
- HNTC (μM) MDCK Cells (MDCK cells): 9.97 µM
- CC50 (in vitro [2]): > 100 µM

Compound: CC(NC(=O)C(N)Cc1ccccc1)C12CC3CC(CC(C3)C1)C2 (centres unmarked) [Compound 4e, Phe-Rim]
- HNTC (μM) MDCK Cells (MDCK cells): 4.75 µM
- CC50 (in vitro [2]): 21.9 µM
